This is an account of results in patent US7105725B2, “Pathogen resistant transgenic plants expressing CEMA or CEMA-related peptides” (University of Victoria Innovation and Development …, priority 1999, dated 2006).

The subject of one assay is E. coli. Kind of assay: anti-bacterial assay (colony count after 4 h with serially diluted peptide). The class given is cell-based, Escherichia coli DH5α. As to the method: The antibacterial activity of a given CEMA and/or CEMA-related peptide can be assessed conveniently by determining the ability of the peptide to inhibit the growth of a pectinolytic bacterial strain such as Erwinia carotovora or even Escherichia coli DH5α. The activity of a given peptide is determined by serially diluting the peptide in Luria-Bertaini (LB) medium and 100-μL aliquots of the resulting titers into wells of a 96-well microtiter plate. A fresh bacterial culture (˜0.3 A550) is then grown on LB medium (1% w/v tryptone and 0.5% w/v yeast extract) and diluted to 10^−2 in LB to represent approximately 10^4–10^5 colony forming units (CFU)mL^−1. 10 μL of the bacterial culture are then inoculated into each well containing the peptide and the samples are incubated at 37° C. for 4 hours. The well contents are then diluted in LB, plated on LB agar, and incubated overnight at an appropriate temperature. […] The colonies are counted, and the antibacterial activity of the peptide under test is determined by comparison to the control plate.
The CEMA or CEMA-related peptide is determined to have biological activity if, under the conditions of this assay, the peptide is capable of inhibiting bacterial growth by at least 10% (compared to the control) at a concentration of 7 μg per mL (i.e., at this concentration, the number of bacterial colonies is no more than 90% that of the control plate).

The test system of assay [1] is susceptible microorganisms. Conditions: cited from earlier work.

As for KWKLFKKIGIGAVLKVLTTGLPALKLTK [CEMA], in the assay on E. coli, the “concentration that kills 50% of bacterial cells” value was 4.5 µg/mL.
With mellitin, the antimicrobial activity entry in assay [1] was “potent antimicrobial activity”.
